Assay results taken from patent US10624880B2, “Predicting response to alvocidib by mitochondrial profiling” (Tolero Pharmaceuticals, Inc., priority 2015, dated 2020).

Experiments:
[1] = system: MCL-1 mRNA in MV-4-11 cells; experiment: RT-PCR of MCL-1 mRNA in MV-4-11 cells; type: cell-based
Description: An AML cell line, MV-4-11, expresses MCL-1. MCL-1 is a key anti-apoptotic protein in MV-4-11 cells. Alvocidib, a CDK9 inhibitor, lowers the expression of MCL-1 mRNA, which is already well documented in the literature. […] MV-4-11 cells were treated with alvocidib for 2 hrs in vitro. Following treatment, cells were harvested and prepared using a standard real time PCR (RT-PCR) assay for detection of MCL-1 mRNA to probe for changes relative to controls.
The relative expression of MCL-1 mRNA was measured at 0.5-16 hour time points after dosing with 100 nM of alvocidib.
Following treatment, cells were harvested and prepared using standard RT-PCR assay for detection of MCL-1 mRNA expression.

[2] = system: MCL-1, Bcl-xL, and Bcl-2 in Panc-1 cells; experiment: Immunoblotting of MCL-1, Bcl-xL, Bcl-2 in Panc-1 cells; type: cell-based, human; settings: Panc-1, 730 nM
Description: The time dependence is observed by monitoring the relative expression of MCL-1, Bcl-xL, and Bcl-2 compared β-actin over time. The relative expression of MCL-1, Bcl-xL, and Bcl-2 was measured at 0-96 hour time points after dosing with 730 nM of alvocidib. In one group, after 24 hours of treatment, media was removed and replaced with fresh media containing 730 nM alvocidib (i.e., a wash step; see FIG. 13A). Panc-1 cells were treated with 730 nM alvocidib in vitro for the times indicated in FIG. 13A-B. Following treatment (and wash step as applicable), cells were harvested and prepared using standard immunoblotting techniques for detection of MCL-1, Bcl-xL, and Bcl-2 expression. […] The time dependence is observed by monitoring the relative expression of MCL-1, Bcl-xL, and Bcl-2 compared β-actin over time. The relative expression of MCL-1, Bcl-xL, and Bcl-2 was measured at 0-96 hour time points after dosing with 730 nM of alvocidib. Cells were treated 3 times (three 24 hour periods, broken by two 24 hour breaks) with 730 nM alvocidib in vitro. Following treatment, cells were harvested and prepared using standard immunoblotting techniques for detection of MCL-1, Bcl-xL, and Bcl-2 expression.

[3] = system: MCL-1, Bcl-xL, and Bcl-2 in Yugen8 cells; experiment: Immunoblotting of MCL-1, Bcl-xL, Bcl-2 in Yugen8 cells; type: cell-based; settings: Yugen8, 280 nM
Description: The time dependence is observed by monitoring the relative expression of MCL-1, Bcl-xL, and Bcl-2 compared β-actin over time. The relative expression of MCL-1, Bcl-xL, and Bcl-2 was measured at 0-96 hour time points after dosing with 280 nM of alvocidib. In one group, after 24 hours of treatment, media was removed and replaced with fresh media containing 280 nM alvocidib (i.e., a wash step; see FIG. 15A). Yugen8 cells were treated with 280 nM alvocidib in vitro for the times indicated in FIG. 15A-B. Following treatment (and wash step as applicable), cells were harvested and prepared using standard immunoblotting techniques for detection of MCL-1, Bcl-xL, and Bcl-2 expression. […] The time dependence is observed by monitoring the relative expression of MCL-1, Bcl-xL, and Bcl-2 compared β-actin over time. The relative expression of MCL-1, Bcl-xL, and Bcl-2 was measured at 0-96 hour time points after dosing with 280 nM of alvocidib. Cells were treated 3 times (three 24 hour periods, broken by two 24 hour breaks) with 280 nM alvocidib in vitro. Following treatment, cells were harvested and prepared using standard immunoblotting techniques for detection of MCL-1, Bcl-xL, and Bcl-2 expression.

[4] = system: MCL-1, Bcl-xL, and Bcl-2 in A549 cells; experiment: Immunoblotting of MCL-1, Bcl-xL, Bcl-2 in A549 cells; type: cell-based, human; settings: A549, 350 nM
Description: The relative expression of MCL-1, Bcl-xL, and Bcl-2 was measured at 0-96 hour time points after dosing with 350 nM of alvocidib. In one group, after 24 hours of treatment, media was removed and replaced with fresh media […] (i.e., a wash step; see FIG. 9A).
A549 cells were treated with 350 nM alvocidib in vitro for the times indicated in FIG. 9A-B. Following treatment (and wash step as applicable), cells were harvested and prepared using standard immunoblotting techniques for detection of MCL-1, Bcl-xL, and Bcl-2 expression.
The relative expression of MCL-1, Bcl-xL, and Bcl-2 was measured at 0-96 hour time points after dosing with 350 nM of alvocidib.
Cells were treated 3 times (three 24 hour periods, broken by two 24 hour breaks) with 350 nM alvocidib in vitro. Following treatment, cells were harvested and prepared using standard immunoblotting techniques for detection of MCL-1, Bcl-xL, and Bcl-2 expression.

MCL-1 mRNA in A549 cells = experiment: RT-PCR of MCL-1 mRNA in A549 cells; type: cell-based, human; settings: A549, alvocidib 0-8 μM, 2 hrs, FIG. 8
Description: The A549 cell line is a human adenocarcinoma cell line, which expresses MCL-1. […] A549 cells were treated with alvocidib for 2 hrs in vitro. Following treatment, cells were harvested and prepared using a standard RT-PCR assay for detection of MCL-1 mRNA to probe for changes relative to controls.

[5] = system: MCL-1, Bcl-xL, and Bcl-2 in MV-4-11 cells; experiment: Immunoblotting of MCL-1, Bcl-xL, Bcl-2 in MV-4-11 cells; type: cell-based
Description: The dose dependence is observed by monitoring the relative expression of MCL-1 compared to β-actin when cells are dosed with alvocidib at concentrations of 0-8 μM. MV4-11 cells were treated with alvocidib for 2 hrs in vitro. Following treatment, cells were harvested and prepared using standard immunoblotting techniques for detection of MCL-1 to probe for changes relative to β-actin.
The time dependence is observed by monitoring the relative expression of MCL-1, Bcl-xL, and Bcl-2 compared β-actin over time. The relative expression of MCL-1, Bcl-xL, and Bcl-2 was measured at 1-96 hour time points after dosing with 80 nM of alvocidib.
Following treatment, cells were harvested and prepared using standard immunoblotting techniques for detection of MCL-1, Bcl-xL, and Bcl-2 expression.

N-Myc in SK-N-AS cells = experiment: Immunoblotting of N-Myc in SK-N-AS cells; type: cell-based, human; settings: 300 nM, 1-24 hour, FIG. 11
Description: The SK-N-AS cell line is a human neuroblastoma cell line that expresses N-Myc, which is a key oncogenic protein. […] The time dependence is observed by monitoring the relative expression of N-Myc compared β-actin over time. The relative expression of N-Myc was measured at 1-24 hour time points after dosing with 300 nM of alvocidib.
Following treatment, cells were harvested and prepared using standard immunoblotting techniques for detection of N-Myc expression.

MCL-1 in MV-4-11 cells = experiment: MCL-1 immunoblotting in the ACM (or FLAM) regimen modeled in vitro; type: cell-based
Source text: (§1) Following the treatment, cells were harvested and prepared using standard immunoblotting techniques for detection of MCL-1.

MV-4-11 cells = experiment: 24 hour EC50 in MV-4-11 cells; type: cell-based; settings: Homo sapiens, MV4-11, read-out: 24 hour EC 50
Source text: as §1

EC50 (MV-4-11 cells)	Structure (SMILES)	time post-treatment at which MCL-1 mRNA expression was reduced ([1]; MV-4-11, 100 nM)	relative expression of MCL-1 mRNA compared controls over time ([1]; MV-4-11, 100 nM, 0.5-16 hour, FIG. 7B)	relative expression of MCL-1 mRNA compared to controls ([1]; MV-4-11, alvocidib 0-8 μM, 2 hrs, FIG. 7A)	relative expression of MCL-1, Bcl-xL, and Bcl-2 compared β-actin over time ([2]; 0-96 hour, with and without wash step, FIG. 13A-B)	relative expression of MCL-1, Bcl-xL, and Bcl-2 compared β-actin over time ([2]; repeat dosing regimen, FIG. 14)	relative expression of MCL-1, Bcl-xL, and Bcl-2 compared β-actin over time ([3]; 0-96 hour, with and without wash step, FIG. 15A-B)	relative expression of MCL-1, Bcl-xL, and Bcl-2 compared β-actin over time ([3]; repeat dosing regimen, FIG. 16)	relative expression of MCL-1, Bcl-xL, and Bcl-2 compared β-actin over time ([4]; 0-96 hour, with and without wash step, FIG. 9A-B)	relative expression of MCL-1, Bcl-xL, and Bcl-2 compared β-actin over time ([4]; repeat dosing (three 24 hour periods, two 24 hour breaks), FIG. 12)	relative expression of MCL-1 mRNA compared to controls (MCL-1 mRNA in A549 cells)	relative expression of MCL-1, Bcl-xL, and Bcl-2 compared β-actin over time ([5]; MV-4-11, 80 nM, 1-96 hour, FIG. 10B)	relative expression of MCL-1 compared to β-actin ([5]; MV-4-11, alvocidib 0-8 μM, 2 hrs, FIG. 10A)	relative expression of N-Myc compared β-actin over time (N-Myc in SK-N-AS cells)	relative expression of MCL-1 compared to β-actin (MCL-1 in MV-4-11 cells; MV-4-11, each treatment dosed at its 24 hour EC50, FIG. 17B)	expression of MCL-1 over the course of the ACM (or FLAM) regimen (MCL-1 in MV-4-11 cells; modeled in vitro, MV-4-11, FIG. 17A)
80 nM	CN1CC[C@H](c2c(O)cc(O)c3c(=O)cc(-c4ccccc4Cl)oc23)[C@H](O)C1 [alvocidib]	≤ 30 min	down-regulates MCL-1 mRNA in MV-4-11 in a time-dependent manner	down-regulates MCL-1 mRNA in MV-4-11 cells in a dose dependent manner	down-regulates MCL-1 in Panc-1 cells in a time dependent manner	down-regulates MCL-1 in Panc-1 cells in a time-dependent manner	down-regulates MCL-1 in Yugen8 cells in a time dependent manner	down-regulates MCL-1 in Yugen8 in a time-dependent manner	down-regulates MCL-1 in A549 in a time-dependent manner	down-regulates MCL-1 in A549 cells in a time-dependent manner	down-regulates MCL-1 mRNA in A549 cells in a dose dependent manner	down-regulates MCL-1 in MV-4-11 in a time-dependent manner	down-regulates MCL-1 in MV-4-11 cells in a dose dependent manner	down-regulates N-Myc in SK-N-AS cells in a time-dependent manner	lower the expression of MCL-1	represses super enhancer complex regulated genes, including expression of MCL-1
1000 nM	CC(=O)c1c(C)c2cnc(Nc3ccc(N4CCNCC4)cn3)nc2n(C2CCCC2)c1=O [palbociclib]															
